One series concerns Hep-2 cells. The note with it: human.
Series [1] concerns HCV replicon cell line, AVAS (sub-genomic CONI, genotype 1b). As to the kind of experiment: Primary HCV replicon cell assay, genotype 1B. Format: cell-based. The note with it: Hepatitis C virus, 72 h. The protocol: (§1) Antiviral activity of test compounds was assessed in a 3-day assay using the stably-expressing HCV replicon cell line, AVAS (sub-genomic CONI, genotype 1b) [Blight et al., Science 290, 1972-1974 (2000)] maintained as sub-confluent cultures on 96-well plates as previously described (Okuse et al., Antiviral Research 65, 23-34 (2005)]. Antiviral activity was determined by blot hybridization analysis of intracellular HCV RNA (normalized to the level of cellular B-actin RNA in each culture sample) and cytotoxicity was assessed by neutral red dye uptake after 3 days of treatment. Additional studies were performed using Huh7 cells containing another HCV replicon, H/FL-Neo, a genotype 1a full length construct [Blight et al., J. Virol. 77, 3181-3190 (2003)]. For studies involving human serum, standard culture medium (which contains 10% fetal bovine serum) and assay conditions were maintained.
(§2) EC50, EC90 and CC50 values (±standard deviations [S.D.]) were calculated by linear regression analysis using data combined from all treated cultures (Korba and Gerin, 1992; Okuse et al., 2005). EC50 and EC90 are drug concentrations at which a 2-fold, or a 10-fold depression of intracellular HBV DNA or HCV RNA (relative to the average levels in untreated cultures), respectively, was observed. CC50 is the drug concentration at which a 2-fold lower level of neutral red dye uptake (relative to the average levels in untreated cultures) was observed. Selectivity index (S.I.) was calculated as CC50/EC90 for HBV assays and CC50/EC50 for HCV assays. EC90 values were used for calculation of the S.I. in HBV assays since at least a 3-fold depression of HBV DNA levels is typically required to achieve statistical significance in this assay system (Korba and Gerin, 1992). For combination treatments, EC50, EC90, CC50 and S.I. are presented for the first compound listed. The molar ratio of the compounds in each combination is also indicated.

In series [2] the test system is HeLa R19 cells. The series can be described thus: Toxicity (MTT) in HeLa R19 cells (Adenovirus section).
Series [3] in a line: Cytotoxicity by neutral red dye uptake in HCV replicon cells. Format: cell-based. The conditions noted are these: human, HCV replicon cell line AVAS (sub-genomic CONI), HCV replicon cells genotype 1B. As for the experimental part:
as §1, §2

Series [4] concerns HeLa R19 cells. The series can be described thus: Toxicity (MTT) in HeLa R19 cells (Rhinovirus section).
Series [5] can be described thus: Cytotoxicity by neutral red dye uptake in HBV assay cultures. Format: cell-based. The note with it: human, confluent 2.2.15 cells (HBV-replicating), nine daily doses. The protocol:
(§3) HBV antiviral assays were conducted as previous described [Korba and Gerin, Antiviral Res. 19:55 (1992 Confluent cultures of 2.2.15 cells were maintained on 96-well flat-bottomed tissue culture plates (confluence in this culture system is required for active, high levels of HBV replication equivalent to that observed in chronically-infected individuals [Sells et al. J. Virol. 62, 2836-2844 (1988); Korba and Gerin (1992)]. Cultures were treated with nine consecutive daily doses of the test compounds. HBV DNA levels were assessed by quantitative blot hybridization 24 hr. after the last treatment. Cytotoxicity was assessed by uptake of neutral red dye 24 hr. following the last treatment.
as §2

The test system of another series is HBV. The series can be described thus: HBV extracellular virion antiviral assay in 2.2.15 cells. The format is cell-based. The conditions noted are these: Hepatitis B virus, extracellular virion HBV DNA, nine daily doses. As for the experimental part: as §3
as §2, with “EC50 and EC90 are drug concentrations at which a 2-fold, or a 10-fold depression of intracellular HBV DNA or HCV RNA (relative to the average levels in untreated cultures), respectively, was observed.” left out

For another series, the system named is 37RC cells. The series can be described thus: Toxicity (MTT) in 37RC cells.
In the next series the test system is MDCK cells. The series can be described thus: Toxicity (MTT) in MDCK cells.
The subject of series [6] is MA104 cells. The series can be described thus: Toxicity (MTT) in MA104 cells (Rotavirus WAG8P1 section).
The test system of series [7] is MA104 cells. The series can be described thus: Toxicity (MTT) in MA104 cells (Rotavirus SA11 section).
A further series relates to HeLa cells. As to the kind of experiment: Toxicity (MTT) in HeLa cells.
A further series has as its system A72 cells. As to the kind of experiment: Toxicity (MTT) in A72 cells.
For series [8], the system named is MA104 cells. The series can be described thus: Toxicity (MTT) in MA104 cells (Rhabdovirus section).

Where only a bound is given, the exact number is not on record here.

On to `CC(=O)Oc1ccccc1C(=O)Nc1ncc(C(F)(F)F)s1` [Compound 1], for which the “Toxicity LD50 (MTT)” value is >50 µg/mL in the series on Hep-2 cells, 4 µg/mL in the series on HeLa R19 cells [2] and >50 µg/mL with HeLa R19 cells [4]. Also, the EC50 in [1] is < 5 µM; in the series on HBV it was 3.2 to 4 µM. Moreover, the 90% effect concentration (EC90) in series [1] is > 5 µM; in the series with HBV, > 4 µM. Also, the CC50 at 3 days in [3] was 3.7 µM. Also, the CC50 at 9 days in series [5] was > 100 µM.
Turning to `O=C(Nc1ncc(C(F)(F)F)s1)c1ccccc1O` [Compound 2], the melting point is 260 to 264 °C (dec.). For the same compound, in series [1], the EC50 lay within 0.005 to 0.05 µM and the EC90 lay within 0.005 to 0.05 µM. The CC50 at 3 days in series [3] was found to be 0.46 µM. Moreover, the CC50 at 9 days in series [5] was > 100 µM. In the series on HBV, the EC50 is 3.2 to 4 µM and the EC90 is > 4 µM.
As to `CC(=O)Oc1ccccc1C(=O)Nc1nc(C(F)(F)F)cs1` [Compound 3], the “Toxicity LD50 (MTT)” value with Hep-2 cells is >50 µg/mL. In series [5], the CC50 at 9 days is > 100 µM. In the series on HBV, the EC50 was > 4 µM and the 90% effect concentration (EC90) was > 4 µM.
Consider `O=C(Nc1nc(C(F)(F)F)cs1)c1ccccc1O` [Compound 4], for which the “Toxicity LD50 (MTT)” value in the series with Hep-2 cells is >50 µg/mL. Also, in series [5], the CC50 at 9 days is > 100 µM. In the series on HBV, the half-maximal effective concentration (EC50) is > 4 µM and the EC90 was > 4 µM.
On to `CC(=O)Oc1ccccc1C(=O)Nc1nnc(C(F)(F)F)s1` [Compound 5], for which the EC50 was < 5 µM in series [1] and > 4 µM in the series on HBV. The 90% effect concentration (EC90) in series [1] was > 5 µM; in the series with HBV it was > 4 µM. Also, the “Toxicity LD50 (MTT)” value in the series with 37RC cells and in the series on MDCK cells was >50 µg/mL in each case. In addition, in series [3], the CC50 at 3 days is 15 µM. Further, in series [5], the CC50 at 9 days is > 100 µM.
As for `O=C(Nc1nnc(C(F)(F)F)s1)c1ccccc1O` [Compound 6], the “Toxicity LD50 (MTT)” value in the series with Hep-2 cells is >50 µg/mL. The EC50 was < 5 µM in [1] and > 4 µM in the series with HBV. Also, the concentration for an effect of 90% (EC90) in [1] is > 5 µM; in the series with HBV, > 4 µM. The CC50 at 3 days in series [3] was found to be 5.3 µM. Also, the 50% cytotoxic concentration (CC50) at 9 days in series [5] was > 100 µM.
`CC(=O)Oc1ccccc1C(=O)Nc1ncc([N+](=O)[O-])s1` [Nitazoxanide, reference compound]: the “Toxicity LD50 (MTT)” value in the series with MA104 cells [6], in the series with Hep-2 cells, in the series with HeLa R19 cells [2], in the series on 37RC cells, in the series with MDCK cells and in the series with HeLa R19 cells [4] was >50 µg/mL each time. Further, the “Toxicity LD50 (MTT)” value in the series on MA104 cells [7] was >50 µg/mL. For the same compound, the concentration for a half-maximal effect (EC50) in series [1] was 0.05 to 0.5 µM; in the series with HBV, 0.05 to 0.2 µM. Further, the EC90 lay in the range of 0.5 to 10 µM in series [1] and 0.8 to 3.2 µM in the series with HBV. For the same compound, in [3], the CC50 at 3 days came to 32 µM. Besides, in series [5], the half-maximal cytotoxic concentration (CC50) at 9 days is > 100 µM.
On to `O=C(Nc1ncc([N+](=O)[O-])s1)c1ccccc1O` [Tizoxanide], for which the “Toxicity LD50 (MTT)” value with MA104 cells [6] is >50 µg/mL; in the series on Hep-2 cells, 50 µg/mL; in the series with HeLa R19 cells [2] it was 0.8 µg/mL; with 37RC cells, >50 µg/mL; in the series on HeLa cells, 3 µg/mL; with MDCK cells, >50 µg/mL. Also, the “Toxicity LD50 (MTT)” value is >50 µg/mL in the series on A72 cells, >50 µg/mL with HeLa R19 cells [4], >50 µg/mL in the series with MA104 cells [7] and 50 µg/mL with MA104 cells [8]. Further, the concentration for a half-maximal effect (EC50) in series [1] was 0.05 to 0.5 µM; with HBV it was 0.05 to 0.2 µM. The 90% effect concentration (EC90) in series [1] was in the range of 0.5 to 10 µM; with HBV, 0.8 to 3.2 µM. In addition, the CC50 at 3 days in series [3] was 15 µM. In series [5], the 50% cytotoxic concentration (CC50) at 9 days is > 100 µM.

Values taken from patent USRE47786E1, “Haloalkyl heteroaryl benzamide compounds” (Romark Laboratories, L.C., priority 2009, dated 2019).
